Data as given in the METLIN SMRT retention time set (Domingo-Almenara et al. 2019).

Assay: gradient 5% acetonitrile 3 min, to 50% in 2 min, to 85% in 15 min, held 3 min, 100 µL/min
Conditions: column: Zorbax Extend-C18 2.1 x 50 mm; eluents: water / acetonitrile, 0.1% formic acid
How it was run: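 Pure standards were run in mixtures of ~100 molecules by HPLC coupled to a quadrupole time-of-flight mass spectrometer. The column was a Zorbax Extend-C18 (2.1 × 50 mm, 1.8 μm) at 100 μL/min, with water and acetonitrile each containing 0.1% formic acid, in positive and negative ionization mode. Dead and dwell volumes were 40 μL and 900 μL. Retention time was taken from computationally picked adduct peaks, each manually inspected, with data collected over 3 months.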

RP-LC retention time	SMILES
809 s	Cc1ccc(C(C)NC(=O)C2CCCN(c3cnc4nccnc4c3)C2)c(C)c1 (centres undefined)
1250 s	CSc1ccc(NC(=O)c2c(C)sc3ncnc(N4CCCC(C)C4)c23)cc1 (centres undefined)
614 s	FC1(F)CN[C@H](c2nc(-c3ccncc3)no2)C1
997 s	CN(CC1(C)CCOCC1)S(=O)(=O)c1ccc(C(F)(F)F)cc1
1110 s	Cc1nc2cc(-c3noc(C4(c5ccccc5)CC4)n3)ccc2o1
993 s	CN(CCc1noc(-c2ccc(Cl)cc2)n1)C(=O)COc1ccc(F)cc1
804 s	CCNC(=O)N1CCCC(c2cccc(C(=O)NCc3ccc(F)cc3F)c2)C1 (centres undefined)
1190 s	CC1Oc2ccccc2N(Cc2nc(-c3ccc(Cl)c(F)c3)no2)C1=O (centres undefined)
697 s	CC(=O)N1c2ccc(S(=O)(=O)N3CCOCC3)cc2CC1C(=O)N1CCCCC1 (centres undefined)
879 s	COc1ccc(-c2noc(C3CCCN3C(=O)c3ccc(OC)nc3)n2)cc1 (centres undefined)
1040 s	CCc1ccc(NC(=O)N2CCCC(C)(C(=O)NCc3ccccc3C)C2)cc1 (centres undefined)
726 s	Cc1ccc2c(Cl)c(C(=O)N3CCN(c4ccccn4)CC3)sc2c1
1110 s	O=C1CC(c2noc(-c3cc(F)ccc3F)n2)CN1c1ccc(F)c(Cl)c1 (centres undefined)
1230 s	Cc1ccc(S(=O)(=O)N2CCc3nc(-c4ccc(F)cc4)ncc3C2)cc1Cl
989 s	Cc1ccc(N2CC(c3noc(C4(c5ccccc5)CC4)n3)CC2=O)cc1 (centres undefined)
783 s	Cc1noc(C2CN(C(=O)Nc3ccc(F)c(Cl)c3)CC23CCOCC3)n1 (centres undefined)
858 s	COC[C@@H]1CN(S(=O)(=O)c2ccc(F)cc2)C[C@H]1c1nc(C)no1
526 s	Cc1cccc(CN2CC(c3noc(C4CCCN4CC4CC4)n3)C2)c1 (centres undefined)
592 s	Cc1cnc(C2CCC2)n1CC1CCN(C(=O)C2(c3ccccc3)CC2)CC1
839 s	CCn1cc(S(=O)(=O)N2CC(Oc3cccc(-c4nc(C)no4)c3)C2)cn1
767 s	CCc1cc(=O)n(CC(=O)Nc2ccc(C)cc2C)c(N2CCOCC2)n1
757 s	CC(C)S(=O)(=O)N1CCOc2ccc(NC(=O)C3CC3)cc2C1
699 s	CC(C)Cn1c(-c2cccc(C(=O)NCC3CCCO3)c2)nc2cccnc21 (centres undefined)
839 s	CC(C)c1noc(-c2ccc(-n3cnc(C(=O)NCC4CC4)c3)nc2)n1
653 s	CCS(=O)(=O)Nc1ccc2nc(N3CCN(c4ccc(F)cc4)CC3)cc(C(=O)O)c2c1
1010 s	COc1ccc(OC)c(NC(=O)N2CCOc3ccc(Cl)cc32)c1
888 s	Cc1cc(C)cc(NC(=O)c2c(C)oc3nc(C)nc(N4CCOCC4)c23)c1
892 s	CSc1ccc(-c2nc3cnccn3c2Nc2cccc(C(=O)NC3CCCCC3)c2)cc1
850 s	COCc1noc([C@@H]2CC(F)(F)CN2S(=O)(=O)c2ccccc2)n1
748 s	O=C(CCc1c(-c2ccc(Cl)cc2)nc2ccccn12)Nc1ccc(F)cc1

Continued, compound first:

SMILES	RP-LC retention time
CCCCC(CC)C(=O)Nc1nc(-c2ccc(C(C)C)cc2)cs1 (centres undefined)	1390 s
COc1ccc(-c2noc(-c3nc(C(C)C)no3)n2)cc1OC	1050 s
CN(C)S(=O)(=O)c1ccc(N)c([N+](=O)[O-])c1	773 s
Cc1nccn1-c1cc(N2CCCCC2)nc2ccnn12	594 s
O=C(NC1CCN(c2cc(-c3ccccc3)[nH]n2)C1)c1cc2ccccc2[nH]1 (centres undefined)	739 s
CCCn1c(-c2cccc(C(=O)NCc3ccc(SC)cc3)c2)nc2cccnc21	874 s
COc1ccc(-c2nc(CNC(=O)c3coc(-c4ccccc4)n3)no2)cc1	950 s
CCCCNC(=O)Cn1nc2c3cc(-c4ccc(F)cc4)nn3ccn2c1=O	812 s
CCc1ccc(-c2noc(Cn3c(=O)n(-c4ccc(C)cc4)c(=O)c4sccc43)n2)cc1	1160 s
COc1ccc(-c2noc(-c3nc(C(C)C)no3)n2)cc1	1120 s
CN(C)c1nc2cc(C(=O)N3CCC4(CC3)OCCO4)sc2n1-c1ccc(F)cc1	654 s
Cc1cc(C)cc(-c2nnc(Cc3nc(-c4ccc(F)cc4)no3)o2)c1	1120 s
COc1ccc(OC)c(NC(=O)c2[nH]c3cc(C)sc3c2CN(C)C)c1	692 s
Cc1ccc(Oc2ccc(NS(=O)(=O)c3cccs3)cc2)nn1	687 s
COc1cccc(NC(=O)C2CCN(S(=O)(=O)c3ccc4c(c3)sc(=O)n4C(C)C)CC2)c1	960 s
COc1ccccc1-c1nc2nccc(-c3cccnc3)n2n1	655 s
O=C(Cn1c(=O)nc(-c2ccccc2)c2cc(Cl)ccc21)N1CCN(c2ccccn2)CC1	646 s
O=C(CN1CCN(Cc2ccc(F)cc2)C(=O)C1=O)N1CCN(c2ccc(F)cc2)CC1	744 s
COc1cccc(-c2cc(N3CCN(C(=O)Nc4cc(OC)ccc4OC)CC3)ncn2)c1	688 s
c1ccc(NN(Cc2ccncc2)c2ccccc2)cc1	774 s

SMILES	RP-LC retention time
CCOc1ccc(S(=O)(=O)N2CC(=O)N(C3CCCC3)C3(CCCCC3)C2)cc1	1230 s
CCC(=O)N(CC(=O)N(Cc1ccc2c(c1)OCO2)Cc1sccc1C)CC1CCCO1 (centres undefined)	864 s
CCc1ccc(OCC(=O)N(Cc2ccc(N(C)C)cc2)C2CCS(=O)(=O)C2)cc1 (centres undefined)	792 s
Cc1ccc(S(=O)(=O)Nc2ccc(Nc3cc(-n4cccn4)ncn3)cc2)c(C)c1	888 s
Cc1cccc(NC(=O)Nc2nccn(-c3ccc(Br)cc3)c2=O)c1	1050 s
CC(C)Cc1ccc([C@@H](C)C(=O)NS(C)(=O)=O)cc1	1070 s
Cc1ccc(N2C(=O)C3N=NN(Cc4nc(-c5ccccc5C)no4)C3C2=O)cc1Cl (centres undefined)	1140 s
CCc1cccc(C)c1NC(=O)COc1cc(C)nc(N2CCN(c3ccccc3)CC2)n1	946 s
Cc1cccc(-n2ccnc(SCC(=O)Nc3cc(Cl)ccc3C)c2=O)c1	915 s
CCc1ccc(C(O)CN2CCN(c3ccccc3)CC2)cc1 (centres undefined)	692 s
COc1ccc(-c2nn3c(N4CCN(c5ccccn5)CC4)cc(C)nc3c2C)cc1	615 s
COCC(=O)Nc1ccc2nc(N3CCN(Cc4ccccc4OC)CC3)cc(C(=O)O)c2c1	573 s
Cc1cc2c(c(=O)n(-c3ccc(F)cc3)c(=O)n2CC(=O)Nc2ccc(Br)cc2)n1C	932 s
COc1ccc(-c2cn3c(CC(=O)N4CCCc5ccccc54)csc3n2)cc1OC	775 s
O=C(O)CNC(=O)c1c(O)c2ccccc2n(Cc2ccccc2)c1=O	989 s
Cc1sc(C)c(S(=O)(=O)NCc2ccc(N(C)C)cc2)c1-c1cc(C(F)(F)F)on1	960 s
O=C(NCCc1ccccn1)c1cccc(N2CCNC(c3ccccc3)C2)n1 (centres undefined)	554 s
CCOC(=O)Cc1c(C(=O)OCC)nnc2c(-c3ccccc3)c(C)nn12	1080 s
Nc1ccc(C(=O)c2cccs2)cn1	634 s
CCC(C)(C)C(=O)NC1CCN(C2=NS(=O)(=O)C(c3ccc(C(C)C)cc3)=C2C)CC1	1020 s

SMILES	RP-LC retention time
COc1cccc(CNC(=O)C2(c3ccc(NC(=O)C(C)C)cc3)CCCCC2)c1	950 s
O=C(c1ccc(-c2cncnc2)nc1)N1CCN(c2ccccc2F)CC1	760 s
O=S(=O)(NCC(O)(c1ccccc1)C(F)(F)F)c1ccc(F)c(Cl)c1 (centres undefined)	922 s
COc1ccc(OCc2nc(-c3ccc(-c4csc(C)n4)cc3)no2)cc1	1170 s
Cn1nc(-c2nncn2CC2CC2)c2c1CCN(C(=O)CC1CCCC1)C2	753 s
Cc1ccc(NS(=O)(=O)c2cc(-c3nc(C(C)C)cs3)cs2)c(Br)c1	1220 s
CCOC(=O)c1noc2ncnc(Nc3cccc(C)c3C)c12	948 s
Cc1ccc(CNC(=O)C2Cn3cccc3C(=O)N2C)o1 (centres undefined)	663 s
Cc1ccc(-c2coc(-c3cccc(NS(=O)(=O)c4cccc5nsnc45)c3)n2)cc1	1180 s
CCOC(=O)c1cccc(NC(=O)c2cnc(-c3ccc(C)cc3)nc2-c2ccncc2)c1	1050 s
Cc1ccc(OCC(=O)Nc2cc3c(cc2N2CCCC2)n(C)c(=O)c(=O)n3C)c(C)c1	1000 s
COCCNC(=O)c1cc(-c2ccccn2)nc2ccccc12	650 s
Cc1ccc(-c2noc(Cc3nnc(-c4cc(C)cc(C)c4)o3)n2)cc1	1190 s
COc1ccc(CCN2C(=O)CC(N3CCN(c4ccccc4)CC3)C2=O)cc1OC (centres undefined)	780 s
Cc1ccc2c(c1)N(S(C)(=O)=O)CCC(C(=O)NCc1ccccc1)O2 (centres undefined)	875 s
CCOc1ccc(-c2noc(Cc3nnc(-c4ccccc4)o3)n2)cc1	1040 s
Cn1nccc1-c1cccc(-c2noc(-c3ccccc3)n2)c1	1120 s
CCN1CCCc2cc(C(=O)NCc3ccc(OC)cc3OC)sc21	973 s
COc1ccc(-n2ccc(=O)c(-c3nc(-c4ccc(Cl)cc4)no3)n2)cc1	938 s
